Results: patent US20250011881A1, “MYC-HSF1 DUAL AMPLIFICATION AS A BIOMARKER FOR CANCER TREATMENT” (The Trustees of Indiana University, priority 2023, published 2025)
Where a name gives a salt, the structure may show the parent alone.

Test system: ovarian cancer cells with (OVCAR8, OVCAR4) or without (OVSAHO, CAOV3) MYC-HSF1 amplification
Assay: Epigenetic inhibitor drug screen, cell viability (Cell Titer Blue)
Type: cell-based
Conditions: not given

Compound | Non Amp - AMP (POC) 10 uM [POC]
[NH2][Pt]1([NH2])[O]CC(=O)[O]1 [Nedaplatin] | −10.66
O=C(O)CNC(=O)C1C(=O)N(C2CCCCC2)C(=O)N(C2CCCCC2)C1=O [Daprodustat(GSK1278863), Daprodustat] | 0.9715

Same assay, conditions: 10 uM, 48 hrs; average relative cell viability (vs 1% DMSO) of non-amplified cells (OVSAHO, CAOV3) minus that of MYC-HSF1 amplified cells (OVCAR8, OVCAR4); positive = greater response in amplified cells

Compound | Non Amp - AMP (POC) 10 uM [POC]
CCCCCCCc1ccc(CCc2cccc(O)c2C(=O)O)cc1 [MG 149] | −0.4614
CN(C)c1ccc(C(=O)NCCCCCC(=O)NO)cc1 [CAY10398] | 48.61
N#CCNC(=O)c1ccc(-c2ccnc(Nc3ccc(N4CCOCC4)cc3)n2)cc1 [CYT387] | −4.087
Nc1ncnc2c1ncn2[C@@H]1O[C@H](C[C@@H](N)CC[C@H](N)C(=O)O)[C@@H](O)[C@H]1O [Sirefungin] | 12.42
O=C(Nc1nc2cccc(-c3ccc(CN4CCS(=O)(=O)CC4)cc3)n2n1)C1CC1 [GLPG0634] | 15.53
C[C@@H]1O[C@@H](Oc2c(-c3cc(O)c(O)c(O)c3)oc3cc(O)cc(O)c3c2=O)[C@H](O)[C@H](O)[C@H]1O [Myricetrin] | −0.2723
CN(C)CC(=O)Nc1ccc2[nH]c(=O)c3ccccc3c2c1.Cl [PJ34 hydrochloride] | 3.696
Cn1cc(C(=O)Nc2ccc3c(c2)OCCO3)c2ccccc2c1=O [CeMMEC1] | −1.809
Cc1cc(C)nc(SCC(=O)Nc2ncc(Cc3cccc4ccccc34)s2)n1 [SirReal2] | −3.472
CCn1c(-c2nonc2N)nc2c(C#CC(C)(C)O)ncc(OC[C@H]3CCCNC3)c21 [GSK690693] | −7.029
CN(C)Cc1ccc(S(=O)(=O)n2ccc(/C=C/C(=O)NO)c2)cc1 [Resminostat (hydrochloride), Resminostat] | 36.33
CN(C)c1ccc(-c2nc3ncc(Cl)c(N4CCN(CC(=O)Nc5nccs5)CC4)c3[nH]2)cc1 [CCT129202] | 2.662
COc1ccccc1C(=O)Nc1cc2c(cc1N1CCCCC1)n(C)c(=O)n2C [GSK 5959] | 10.99
CCC1C/C(=C\c2cccnc2)C(=O)/C(=C/c2cccnc2)C1 (stereo not shown) [MCB-613] | −5.355
O=c1oc2c(O)c(O)cc3c(=O)oc4c(O)c(O)cc1c4c23 [Ellagic acid] | 13.8
CO[C@@H](C(=O)N1Cc2n[nH]c(NC(=O)c3ccc(N4CCN(C)CC4)cc3)c2C1)c1ccccc1 [Danusertib (PHA-739358), Danusertib] | −1.72
O=C(NO)c1ccc(CC(=O)N(CCO)c2ccccc2)cc1 [HPOB] | 18.14
O=C(c1cccc(Cl)c1F)N1CCN(Cc2cccc(Nc3nccs3)n2)CC1 [MK-8745] | 10.66

Same assay, conditions: 10 uM, 48 hrs; average relative cell viability (vs 1% DMSO) of non-amplified cells (OVSAHO, CAOV3) minus that of MYC-HSF1 amplified cells (OVCAR8, OVCAR4); positive = greater response in amplified cells; 10 µM

Compound | Non Amp - AMP (POC) 10 uM [POC]
Cn1c(/C=C/C(=O)NO)ccc1/C=C/C(=O)c1cccc(F)c1 [MC 1568] | −4.947
CCOC(=O)CCNc1cc(N2CCc3ccccc3CC2)nc(-c2ccccn2)n1.Cl [GSK J4 HCl] | −10.21
CCCCc1nc2cc(/C=C/C(=O)NO)ccc2n1CCN(CC)CC [SB939, Pracinostat] | 42.19
O=C(O)c1ccnc(C(=O)O)c1 [2,4-Pyridinedicarboxylic Acid (hydrate), 2,4-Pyridinedicarboxylic Acid] | 10.85
COc1cc2c(cc1-c1c(C)noc1C)ncc1[nH]c(=O)n([C@H](C)c3ccccn3)c12 [I-BET151] | 21.72
COc1cccc2c1C(=O)c1c(O)c3c(c(O)c1C2=O)C[C@@](O)(C(=O)CO)C[C@@H]3O[C@H]1C[C@H](N)[C@H](O)[C@H](C)O1 [Doxorubicin (Adriamycin) HCl, Doxorubicin] | 3.26

Same assay, conditions: 10 uM, 48 hrs; average relative cell viability (vs 1% DMSO) of non-amplified cells (OVSAHO, CAOV3) minus that of MYC-HSF1 amplified cells (OVCAR8, OVCAR4); positive = greater response in amplified cells; dihydrochloride, 10 µM

Compound | Non Amp - AMP (POC) 10 uM [POC]
C[C@]1(c2nc3c(C(N)=O)cccc3[nH]2)CCCN1 [Veliparib dihydrochloride] | −2.841

Same assay, conditions: 10 uM, 48 hrs; average relative cell viability (vs 1% DMSO) of non-amplified cells (OVSAHO, CAOV3) minus that of MYC-HSF1 amplified cells (OVCAR8, OVCAR4); positive = greater response in amplified cells; listed as GSK-J4 (hydrochloride), 10 µM

Compound | Non Amp - AMP (POC) 10 uM [POC]
CCOC(=O)CCNc1cc(N2CCc3ccccc3CC2)nc(-c2ccccn2)n1.Cl [GSK J4 HCl] | −13.06

Same assay, conditions: 10 uM, 48 hrs; average relative cell viability (vs 1% DMSO) of non-amplified cells (OVSAHO, CAOV3) minus that of MYC-HSF1 amplified cells (OVCAR8, OVCAR4); positive = greater response in amplified cells; listed as I-BET151 (GSK1210151A), 10 µM

Compound | Non Amp - AMP (POC) 10 uM [POC]
COc1cc2c(cc1-c1c(C)noc1C)ncc1[nH]c(=O)n([C@H](C)c3ccccn3)c12 [I-BET151] | 3.072

Same assay, conditions: 10 uM, 48 hrs; average relative cell viability (vs 1% DMSO) of non-amplified cells (OVSAHO, CAOV3) minus that of MYC-HSF1 amplified cells (OVCAR8, OVCAR4); positive = greater response in amplified cells; listed as MC1568, 10 µM

Compound | Non Amp - AMP (POC) 10 uM [POC]
Cn1c(/C=C/C(=O)NO)ccc1/C=C/C(=O)c1cccc(F)c1 [MC 1568] | −17.78

Same assay, conditions: 10 uM, 48 hrs; average relative cell viability (vs 1% DMSO) of non-amplified cells (OVSAHO, CAOV3) minus that of MYC-HSF1 amplified cells (OVCAR8, OVCAR4); positive = greater response in amplified cells; listed as Pracinostat (SB939), 10 µM

Compound | Non Amp - AMP (POC) 10 uM [POC]
CCCCc1nc2cc(/C=C/C(=O)NO)ccc2n1CCN(CC)CC [SB939, Pracinostat] | 22.93
